Measured values reported in patent US20090270381A1, “Non-steroidal progesterone receptor modulators” (priority 2007, published 2009).
pIC50: −log10 of the molar value. Read-outs that look alike come from different tables or passages of the source.

Legend:
PR-A = target: T1, PR-A (Homo sapiens, UniProt P06401); assay: Transactivation test on antagonistic activity at PR-A; assay type: cell-based; conditions: for pIC50: antagonism at PR-A; for Emax: read-out: Efficacy (antagonism at PR-A) [%]
T1 construct: expressed in transfected cells
T1 sequence (P06401 1-769 isoform P06401-2): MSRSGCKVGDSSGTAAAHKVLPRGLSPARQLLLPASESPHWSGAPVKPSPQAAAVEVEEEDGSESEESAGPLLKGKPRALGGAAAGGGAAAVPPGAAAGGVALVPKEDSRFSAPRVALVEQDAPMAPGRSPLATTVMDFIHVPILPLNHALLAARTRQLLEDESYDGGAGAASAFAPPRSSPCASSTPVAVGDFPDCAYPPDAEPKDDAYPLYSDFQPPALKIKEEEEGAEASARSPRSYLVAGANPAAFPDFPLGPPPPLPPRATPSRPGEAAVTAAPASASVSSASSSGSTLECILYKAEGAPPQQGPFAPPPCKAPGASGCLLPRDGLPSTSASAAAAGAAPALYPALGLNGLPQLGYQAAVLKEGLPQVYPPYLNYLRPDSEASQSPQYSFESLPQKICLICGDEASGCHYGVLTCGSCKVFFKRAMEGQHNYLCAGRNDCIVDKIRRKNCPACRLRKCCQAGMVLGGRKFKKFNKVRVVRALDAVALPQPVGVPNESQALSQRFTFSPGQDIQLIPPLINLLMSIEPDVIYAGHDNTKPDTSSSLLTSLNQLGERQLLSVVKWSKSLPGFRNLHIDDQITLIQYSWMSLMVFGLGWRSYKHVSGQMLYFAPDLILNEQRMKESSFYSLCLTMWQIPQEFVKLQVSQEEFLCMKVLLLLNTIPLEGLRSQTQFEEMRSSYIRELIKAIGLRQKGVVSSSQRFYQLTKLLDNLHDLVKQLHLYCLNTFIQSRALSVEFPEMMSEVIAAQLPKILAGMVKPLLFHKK
Protocol: (§1) The transactivation assay is carried out as described in WO 02/054064.

PR-B = target: T2, PR-B (Homo sapiens, UniProt P06401); assay: Transactivation test on antagonistic activity on PR-B; assay type: cell-based
T2 construct: expressed in transfected cells
T2 sequence (P06401 1-933): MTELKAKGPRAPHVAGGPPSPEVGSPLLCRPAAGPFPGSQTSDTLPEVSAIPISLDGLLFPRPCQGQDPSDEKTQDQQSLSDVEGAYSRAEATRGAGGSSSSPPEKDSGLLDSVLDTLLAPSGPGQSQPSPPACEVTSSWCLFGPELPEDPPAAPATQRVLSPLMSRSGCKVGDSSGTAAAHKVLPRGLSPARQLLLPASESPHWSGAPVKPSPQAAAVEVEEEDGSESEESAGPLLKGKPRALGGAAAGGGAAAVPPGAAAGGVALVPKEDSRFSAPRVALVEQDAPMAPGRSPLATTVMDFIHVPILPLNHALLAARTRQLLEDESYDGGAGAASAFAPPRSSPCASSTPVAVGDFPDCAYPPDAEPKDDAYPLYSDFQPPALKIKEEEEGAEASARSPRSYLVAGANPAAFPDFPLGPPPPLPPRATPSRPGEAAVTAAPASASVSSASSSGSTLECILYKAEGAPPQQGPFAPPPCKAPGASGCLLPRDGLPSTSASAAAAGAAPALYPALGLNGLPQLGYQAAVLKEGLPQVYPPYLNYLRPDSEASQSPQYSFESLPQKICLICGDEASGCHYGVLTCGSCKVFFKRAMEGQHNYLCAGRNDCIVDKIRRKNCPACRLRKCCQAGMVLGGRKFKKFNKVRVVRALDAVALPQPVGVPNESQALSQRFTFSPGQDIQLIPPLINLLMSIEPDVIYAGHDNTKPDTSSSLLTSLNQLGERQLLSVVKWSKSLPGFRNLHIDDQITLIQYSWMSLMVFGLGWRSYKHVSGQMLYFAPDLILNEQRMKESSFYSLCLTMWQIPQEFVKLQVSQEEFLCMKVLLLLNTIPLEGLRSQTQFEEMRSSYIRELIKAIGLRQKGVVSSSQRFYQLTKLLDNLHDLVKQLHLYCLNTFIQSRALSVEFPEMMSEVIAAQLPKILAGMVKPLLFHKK
Protocol: as §1

Row | Compound | pIC50 (PR-A) | Emax (PR-A) | pIC50 (PR-B) | pIC50 (PR-B; antagonistic activity on PR-B, read-out: IC50)
1 | N#Cc1ccc(NC(=O)C(O)(Cc2cccc(-c3ccc(C(=O)CO)cc3)c2)C2CCCCC2)cc1C(F)(F)F (stereo not drawn) [Example 78, N-(4-Cyano-3-trifluoromethylphenyl)-2-cyclohexyl-2-hydroxy-3-[4′-(2-hydroxy-acetyl)biphenyl-3-yl]propionamide] | 7.25 | 101% | – | –
2 | N#Cc1ccc(NC(=O)C(O)(Cc2ccccc2)C2CCN(C(=O)c3ccno3)CC2)cc1C(F)(F)F (single isomer, unassigned) [Example 113, N-(4-Cyano-3-trifluoromethylphenyl)-2-hydroxy-2-[1-(isoxazole-5-carbonyl)piperidin-4-yl]-3-phenyl-propionamide] | 7.66 | 97.9% | – | –
3 | Cc1ccc(C#CC(O)(C(=O)Nc2ccc(C#N)c(Cl)c2)C2CCCCC2)cc1 (racemic) [Example 4, rac-N-(3-Chloro-4-cyanophenyl)-2-hydroxy-2-cyclohexyl-2-(4-methylphenyl)-ethynylacetamide] | – | – | 8.70 | –
4 | N#Cc1ccc(NC(=O)C(O)(C#Cc2ccc(C(=O)O)cc2)C2CCCCC2)cc1Cl (racemic) [Example 12, rac-N-(3-Chloro-4-cyanophenyl)-2-hydroxy-2-cyclohexyl-2-(4-carboxyphenyl)-ethynylacetamide] | – | – | 8.74 | –
5 | Cn1c(C#N)ccc1NC(=O)C(O)(Cc1ccccc1)C1CCCCC1 (stereo not drawn) [Example 97, N-(5-Cyano-1-methyl-1H-pyrrol-2-yl)-2-cyclohexyl-2-hydroxy-3-phenyl-propionamide] | 7.25 | 105% | – | –
6 | N#Cc1ccc(NC(=O)C(O)(Cc2cccc(-c3ccsc3)c2)C2CCCCC2)cc1C(F)(F)F (stereo not drawn) [Example 59, N-(4-Cyano-3-trifluoromethylphenyl)-2-cyclohexyl-2-hydroxy-3-(3-thiophen-3-ylphenyl)propionamide] | 7.33 | 103% | – | –
7 | N#Cc1ccc(NC(=O)C(O)(C#Cc2ccccc2)C2CCCCC2)cc1Cl (single isomer, unassigned; (-)) [Example 2b, (−)-N-(3-chloro-4-cyanophenyl)-2-hydroxy-2-cyclohexyl-2-phenylethynylacetamide] | – | – | – | 8.74
8 | CNC(=O)c1cccc(-c2cccc(CC(O)(C(=O)Nc3ccc(C#N)c(C(F)(F)F)c3)C3CCN(S(=O)(=O)c4cccc(F)c4)CC3)c2)c1 (stereo not drawn) [Example 169, N-Methyl-3′-{2-(4-cyano-3-trifluoro-methylphenylcarbamoyl)-2-[1-(3-fluoro-benzenesulfonyl)-piperidin-4-yl]-2-hydroxyethyl}biphenyl-3-carboxamide] | 8.77 | 103% | – | –
9 | CS(=O)(=O)N1CCC(C(O)(Cc2ccccc2)C(=O)Nc2ccc(C#N)c(C(F)(F)F)c2)CC1 (single isomer, unassigned) [Example 103, N-(4-Cyano-3-trifluoromethylphenyl)-2-hydroxy-2-(1-methanesulfonyl-piperidin-4-yl)-3-phenylpropionamide] | 7.31 | 98.5% | – | –
10 | N#Cc1ccc(NC(=O)C(O)(Cc2ccccc2)C2CCN(S(=O)(=O)c3cccc(Cl)c3)CC2)cc1C(F)(F)F (single isomer, unassigned) [Example 111, 2-[1-(3-Chlorobenzenesulfonyl)-piperidin-4-yl]-N-(4-cyano-3-trifluoro-methylphenyl)-2-hydroxy-3-phenyl-propionamide] | 8.38 | 103% | – | –
11 | CC(=O)Nc1cccc(-c2cccc(CC(O)(C(=O)Nc3ccc(C#N)c(C(F)(F)F)c3)C3CCCCC3)c2)c1 (stereo not drawn) [Example 71, 3-(3′-Acetylaminobiphenyl-3-yl)-N-(4-cyano-3-trifluoromethylphenyl)-2-cyclohexyl-2-hydroxypropionamide] | 7.76 | 100% | – | –
12 | N#Cc1ccc(NC(=O)C(O)(Cc2cccc(O)c2)C2CCCCC2)cc1C(F)(F)F (single isomer, unassigned) [Example 200b, N-(4-Cyano-3-trifluoromethylphenyl)-2-cyclohexyl-2-hydroxy-3-(3-hydroxy-phenyl)propionamide] | 8.25 | 98.5% | – | –
13 | CNS(=O)(=O)c1ccc(-c2cccc(C[C@](O)(C(=O)Nc3ccc(C#N)c(C(F)(F)F)c3)C3CCCCC3)c2)cc1 (stereo in doubt) [Example 63, N-(4-Cyano-3-trifluoromethylphenyl)-2-cyclohexyl-2-hydroxy-3-(4′-methyl-sulfamoylbiphenyl-3-yl)propionamide] | 7.58 | 104% | – | –
14 | CNC(=O)c1cccc(-c2cccc(CC(O)(C(=O)Nc3ccc(C#N)c(C(F)(F)F)c3)C3CCCCC3)c2)c1 (stereo not drawn) [Example 68, N-Methyl-3′-[2-(4-cyano-3-trifluoro-methylphenylcarbamoyl)-2-cyclohexyl-2-hydroxyethyl]biphenyl-3-carboxamide] | 8.29 | 102% | – | –
15 | CNC(=O)c1cccc(-c2cccc(CC(O)(C(=O)Nc3ccc(C#N)c(C(F)(F)F)c3)C3CCN(C(=O)c4ccccc4)CC3)c2)c1 (single isomer, unassigned) [Example 159, N-Methyl-3′-[2-(1-benzoylpiperidin-4-yl)-2-(4-cyano-3-trifluoromethylphenyl-carbamoyl)-2-hydroxyethyl]biphenyl-3-carboxamide] | 7.80 | 96.2% | – | –
16 | N#Cc1ccc(NC(=O)C(O)(Cc2cccc(-c3cccc(C(N)=O)c3)c2)C2CCN(S(=O)(=O)c3ccc(F)cc3)CC2)cc1C(F)(F)F (single isomer, unassigned) [Example 172, 3′-{2-(4-Cyano-3-trifluoromethyl-phenylcarbamoyl)-2-[1-(4-fluoro-benzenesulfonyl)piperidin-4-yl]-2-hydroxyethyl}biphenyl-3-carboxamide] | 8.92 | 101% | – | –
17 | N#Cc1ccc(NC(=O)C(O)(Cc2ccccc2)C2CCN(C(=O)c3ccccc3)CC2)cc1C(F)(F)F (single isomer, unassigned) [Example 101a, 2-(1-Benzoylpiperidin-4-yl)-N-(4-cyano-3-trifluoromethylphenyl)-2-hydroxy-3-phenylpropionamide] | 7.83 | 103% | – | –
18 | CC(=O)c1ccc(-c2ccccc2CC(O)(C(=O)Nc2ccc(C#N)c(Cl)c2)C2CCCCC2)cc1 (single isomer, unassigned) [Example 19a, rac-3-(4′-Acetylbiphenyl-2-yl)-N-(3-chloro-4-cyanophenyl)-2-cyclohexyl-2-hydroxy-propionamide] | 8.20 | 108% | – | –
19 | N#Cc1ccc(NC(=O)C(O)(Cc2cccc(-c3cccc(C(=O)N4CCOCC4)c3)c2)C2CCN(C(=O)c3ccccc3)CC2)cc1C(F)(F)F (stereo not drawn) [Example 162, 2-(1-Benzoylpiperidin-4-yl)-N-(4-cyano-3-trifluoromethylphenyl)-2-hydroxy-3-[3′-(morpholine-4-carbonyl)-biphenyl-3-yl]propionamide] | 7.36 | 99% | – | –
20 | CS(=O)(=O)N1CCN(Cc2cccc(CC(O)(C(=O)Nc3ccc(C#N)c(C(F)(F)F)c3)C3CCCCC3)c2)CC1 (stereo not drawn) [Example 84, N-(4-Cyano-3-trifluoromethylphenyl)-2-cyclohexyl-2-hydroxy-3-[3-(4-methane-sulfonylpiperazin-1-ylmethyl)phenyl]-propionamide] | 7.29 | 102% | – | –
21 | N#Cc1ccc(NC(=O)C(O)(Cc2ccccc2)C2CCN(C(=O)C3CC3)CC2)cc1C(F)(F)F (single isomer, unassigned) [Example 108, N-(4-Cyano-3-trifluoromethylphenyl)-2-(1-cyclopropanecarbonylpiperidin-4-yl)-2-hydroxy-3-phenylpropion amide] | 7.44 | 96% | – | –
